Reference: ChEMBL document CHEMBL1146299, “Molecular modeling of binding between amidinobenzisothiazoles, with antidegenerative activity on cartilage, and matrix metalloproteinase-3” (Bioorg Med Chem, 2007)

experiment: Dissociation constant, pKa of the compound; assay type: physicochemical

Structure (SMILES)	pKa
CC(=N)Nc1nsc2ccccc12	6.99
N=C(Nc1nsc2ccccc12)c1ccc(Cl)cc1	4.84
N=C(Nc1nsc2ccccc12)c1ccccc1	5.4
